Here are results for one compound from patent US20190328832A1, “ANTIMICROBIAL COMBINATIONS” (HELPERBY THERAPEUTICS LIMITED, priority 2016, published 2019).

Molecules are shown by their SMILES.

In this assay the test system is log phase NDM-1 Klebsiella Pneumoniae (BAA2473 strain). The assay can be described thus: Time-kill method over 24 hours against log phase NDM-1 Klebsiella pneumoniae (CFU counts). Particulars: perphenazine alone at 128 mg/L, FIG. 1. The class given is cell-based. On the procedure:
The objective of this example was to test the synergistic effect of perphenazine and colistin (in the form of colistimethate sodium) in combination against log phase NDM-1 Klebsiella Pneumoniae by time-kill methods over a time period of 24 hours. As described hereinabove, time-kill methods are another accepted test for ascertaining the presence or absence of synergy, and involve comparing the dynamic effect of a drug combination with each drug alone when assessing the effect on bacterial log or stationary-growth over time.
Materials and Methods • 1. Bacterial strain used: BAA2473 strain of Klebsiella pneumoniae • 2. Growth of bacteria: Log phase growth of BAA2473 was carried out according to known methods in the art, e.g. SOP R-005-00 Log Phase Growth of Bacteria. • 3. Compound preparation: • i. Perphenazine was ordered from Sigma Aldrich® UK. • ii. Colistin was obtained as Colistimethate sodium (Forest Laboratories UK 1 million I. U. 80 mg). • 4. The overnight culture was diluted with nutrient broth (Oxoid) to […] and 280 μl and 290 ul of the culture was added to each combination well and drug respectively, to make the final concentration of 300 μl. • 5. Incubation of the compounds with the bacterial suspension was carried out for 24 hours. At 0, 2, 4, 7 and 24 hours, CFU counts were performed to measure the kill effects of the drug combination.

In the case of `OCCN1CCN(CCCN2c3ccccc3Sc3ccc(Cl)cc32)CC1` [perphenazine, 2-[4-[3-(2-chloro-10H-phenothiazin-10-yl)propyl]piperazin-1-yl]ethanol], the “effect against NDM-1 K. pneumoniae (time-kill, Log CFU/ml)” value is reported as “little or no effect”.
